We go through 32 compounds from patent US9745319B2, “Irreversible covalent inhibitors of the GTPase K-Ras G12C” (Araxes Pharma LLC, priority 2013, dated 2017).

The assay addresses T1, KRAS G12C 1-169, his-tagged protein, GDP-loaded (Homo sapiens, UniProt P01116, G12C).
T1 construct: KRAS G12C 1-169, his-tagged protein, GDP-loaded was diluted to 2 μm in buffer
As to the kind of experiment: Biochemical assay: covalent binding to KRAS G12C analyzed by mass spectrometry. The note with it: protein diluted to 2 μm, room temperature for 24 hrs, method lists 100, 30 and 10 μM final compound concentration, not stated which applies. As to the method:
Test compounds were prepared as 10 mM stock solutions in DMSO (Fisher cat# BP-231-100). KRAS G12C 1-169, his-tagged protein, GDP-loaded was diluted to 2 μm in buffer (20 mM Hepes, 150 mM NaCl, 1 mM MgCl2). Compounds were tested for activity as follows:
Compounds were diluted to 50× final test concentration in DMSO in 96-well storage plates. Compound stock solutions were vortexed before use and observed carefully for any sign of precipitation. Dilutions were as follow: • For 100 μM final compound concentration, compounds were diluted to 5000 μM (5 μl 10 mM compound stock +5 μl DMSO and mixed well by pipetting. • For 30 μM final compound concentration, compounds were diluted to 1500 μM (3 μl 10 mM compound stock +17 μl DMSO) and mixed well by pipetting. • For 10 μM final compound concentration, compounds were diluted to 500 μM (2 μl 10 mM compound stock +38 μl DMSO) and mixed well by pipetting. 49 μl of the stock protein solution was added to each well of a 96-well PCR plate (Fisher cat#1423027). 1 μl of the diluted 50× compounds were added to appropriate wells in the PCR plate using 12-channel pipettor. Reactions were mixed carefully and thoroughly by pipetting up/down with a 200 μl multi-channel pipettor. The plate was sealed well with aluminum plate seal, and stored in drawer at room temperature for 24 hrs. 5 μl of 2% formic acid (Fisher cat# A117) in DI H2O was then added to each well followed by mixing with a pipette. The plate was then resealed with aluminum seal and stored on dry ice until analyzed as described below.
The above described assays were analyzed by mass spectrometry according to the following procedure:
The MS instrument is set to positive polarity, 2 GHz resolution, and low mass (1700) mode and allowed to equilibrate for 30 minutes. The instrument is then calibrated, switched to acquisition mode and the appropriate method loaded.
After another 30 minute equilibration time, a blank batch (i.e., buffer) is run to ensure equipment is operating properly. The samples are thawed at 37° C. for 10 minutes, briefly centrifuged, and transfer to the bench top. Wells A1 and H12 are spiked with 1 uL 500 uM internal standard peptide, and the plates centrifuged at 2000×g for 5 minutes. The method is then run and masses of each individual well recorded.
The masses (for which integration data is desired) for each well are pasted into the platemap and exported from the analysis. Masses for the internal standards are exported as well. The data at 50 ppm is extracted for the +19 charge state, and identity of well A1 is assigned using the internal standard spike and integrated. Peak data is exported as a TOF list and the above steps are repeated individually, for the +20, 21, 22, 23, 24, and 25 charge states.

With `C=Cc1ccc(S(=O)(=O)NC[C@H]2C[C@@H]3O[C@H](CO)[C@@H](OCc4ccccc4)[C@@H]3O2)cc1` [Compound I-19], the Binding % entry is “++ (++ indicates binding activity from greater than 5% to 10%)”.

For the compound `C=Cc1ccccc1S(=O)(=O)NCCOc1ccc2ccccc2c1` [II-9], the Binding % entry was “++ (++ indicates binding activity from greater than 5% to 10%)”.

Turning to `C=Cc1cccc(S(=O)(=O)NC[C@H]2C[C@@H]3O[C@H](COCc4ccccc4)[C@@H](OCc4ccccc4)[C@@H]3O2)c1` [Compound I-11], the Binding % entry was “++ (++ indicates binding activity from greater than 5% to 10%)”.

Turning to `C=CS(=O)(=O)NCCOc1cccc2ccccc12` [II-2], the Binding % entry is “+++ (+++ indicates binding activity from greater than 10% to 15%)”.

Take `C=Cc1ccc(S(=O)(=O)NCCOc2ccc3ccccc3c2)cc1` [II-6]: the Binding % result was “+++ (+++ indicates binding activity from greater than 10% to 15%)”.

Consider `C=CC(=O)NC[C@@H]1C[C@@H]2O[C@H](COCc3ccccc3)[C@@H](OCc3ccccc3)[C@@H]2O1` [Compound I-4], for which the Binding % result is on record as “+ (+ indicates binding activity from 0.5% to 5%)”.

Turning to `C=Cc1ccccc1S(=O)(=O)NC[C@@H]1C[C@@H]2O[C@H](COCc3ccccc3)[C@@H](OCc3ccccc3)[C@@H]2O1` [Compound I-15], the Binding % entry is “+++ (+++ indicates binding activity from greater than 10% to 15%)”.

With `C=CS(=O)(=O)NC[C@H]1C[C@@H]2O[C@H](COCc3ccccc3)[C@@H](OCc3ccccc3)[C@@H]2O1` [Compound I-6], the Binding % result was “+++ (+++ indicates binding activity from greater than 10% to 15%)”.

Regarding `C=Cc1cccc(S(=O)(=O)NCCOc2ccc3ccccc3c2)c1` [II-8], the Binding % entry is on record as “+++ (+++ indicates binding activity from greater than 10% to 15%)”.

With `C=CS(=O)(=O)NCCNc1ccc2ccccc2c1` [II-4], the Binding % result was “++ (++ indicates binding activity from greater than 5% to 10%)”.

On to `C=Cc1cccc(S(=O)(=O)NC[C@@H]2C[C@@H]3O[C@H](COCc4ccccc4)[C@@H](OCc4ccccc4)[C@@H]3O2)c1` [Compound I-13], for which the Binding % entry is recorded as “++++ (++++ indicates binding activity from greater than 15%)”.

As to `C=Cc1ccccc1S(=O)(=O)NCCOc1cccc2ccccc12` [II-12], the Binding % entry is listed as “+++ (+++ indicates binding activity from greater than 10% to 15%)”.

For the compound `C=CS(=O)(=O)NC[C@@H]1C[C@@H]2O[C@H](COCc3ccccc3)[C@@H](OCc3ccccc3)[C@@H]2O1` [Compound I-5], the Binding % result is recorded as “+++ (+++ indicates binding activity from greater than 10% to 15%)”.

For `C=CS(=O)(=O)NCCNc1cccc2ccccc12` [II-3], the Binding % result is listed as “+++ (+++ indicates binding activity from greater than 10% to 15%)”.

Take `C=Cc1ccccc1S(=O)(=O)NC[C@H]1C[C@@H]2O[C@H](COCc3ccccc3)[C@@H](OCc3ccccc3)[C@@H]2O1` [Compound I-12]: the Binding % entry is recorded as “+++ (+++ indicates binding activity from greater than 10% to 15%)”.

Take `C=Cc1ccccc1S(=O)(=O)NC[C@H]1C[C@@H]2O[C@H](CO)[C@@H](OCc3ccccc3)[C@@H]2O1` [Compound I-18]: the Binding % entry was “+++ (+++ indicates binding activity from greater than 10% to 15%)”.

`C=Cc1ccc(S(=O)(=O)NC[C@H]2C[C@@H]3O[C@H](COCc4ccccc4)[C@@H](OCc4ccccc4)[C@@H]3O2)cc1` [Compound I-10]: the Binding % entry is listed as “++++ (++++ indicates binding activity from greater than 15%)”.

Turning to `C=Cc1cccc(S(=O)(=O)NC[C@@H]2C[C@@H]3O[C@H](CO)[C@@H](OCc4ccccc4)[C@@H]3O2)c1` [Compound I-20], the Binding % result is listed as “+++ (+++ indicates binding activity from greater than 10% to 15%)”.

Take `C=CC(=O)NC[C@H]1C[C@@H]2O[C@H](COCc3ccccc3)[C@@H](OCc3ccccc3)[C@@H]2O1` [Compound I-3]: the Binding % entry is “+ (+ indicates binding activity from 0.5% to 5%)”.

For the compound `C=Cc1ccc(S(=O)(=O)NCCNc2ccc3ccccc3c2)cc1` [II-5], the Binding % entry is given as “++ (++ indicates binding activity from greater than 5% to 10%)”.

Take `C=CC(=O)NCC1C[C@@H]2O[C@H](CO)[C@@H](OCc3ccccc3)[C@@H]2O1` (some centres unmarked) [Compound I-1]: the Binding % entry is on record as “+ (+ indicates binding activity from 0.5% to 5%)”.

As to `C=Cc1cccc(S(=O)(=O)NCCOc2cccc3ccccc23)c1` [II-7], the Binding % entry was “++ (++ indicates binding activity from greater than 5% to 10%)”.

As to `C=CS(=O)(=O)NCCOc1ccc2ccccc2c1` [II-1], the Binding % result is listed as “+++ (+++ indicates binding activity from greater than 10% to 15%)”.

On to `C=Cc1cccc(S(=O)(=O)NC[C@H]2C[C@@H]3O[C@H](CO)[C@@H](OCc4ccccc4)[C@@H]3O2)c1` [Compound I-16], for which the Binding % result is on record as “++ (++ indicates binding activity from greater than 5% to 10%)”.

Turning to `C=Cc1ccccc1S(=O)(=O)NCCNc1ccc2ccccc2c1` [II-13], the Binding % entry is reported as “+++ (+++ indicates binding activity from greater than 10% to 15%)”.

As for `C=Cc1ccccc1S(=O)(=O)NCCNc1cccc2ccccc12` [II-11], the Binding % result is recorded as “++++ (++++ indicates binding activity from greater than 15%)”.

`C=CS(=O)(=O)NC[C@H]1C[C@@H]2O[C@H](CO)[C@@H](OCc3ccccc3)[C@@H]2O1` [Compound I-7]: the Binding % entry is “++ (++ indicates binding activity from greater than 5% to 10%)”.

With `C=Cc1ccc(S(=O)(=O)NC[C@@H]2C[C@@H]3O[C@H](COCc4ccccc4)[C@@H](OCc4ccccc4)[C@@H]3O2)cc1` [Compound I-14], the Binding % entry is listed as “+++ (+++ indicates binding activity from greater than 10% to 15%)”.

With `C=CC(=O)NC[C@@H]1C[C@@H]2O[C@H](CO)[C@@H](OCc3ccccc3)[C@@H]2O1` [Compound I-2], the Binding % entry is reported as “+ (+ indicates binding activity from 0.5% to 5%)”.

As for `C=Cc1ccccc1S(=O)(=O)NC[C@@H]1C[C@@H]2O[C@H](CO)[C@@H](OCc3ccccc3)[C@@H]2O1` [Compound I-17], the Binding % result is reported as “++++ (++++ indicates binding activity from greater than 15%)”.

On to `C=Cc1ccc(S(=O)(=O)NCCNc2cccc3ccccc23)cc1` [II-10], for which the Binding % entry is “+++ (+++ indicates binding activity from greater than 10% to 15%)”.

Turning to `C=Cc1ccc(S(=O)(=O)NC[C@H]2C[C@@H]3O[C@H](CO)[C@@H](OCc4ccccc4)[C@@H]3O2)cc1` [Compound I-9], the Binding % entry was “+++ (+++ indicates binding activity from greater than 10% to 15%)”.
